In ChEMBL document CHEMBL1158612, “Anti HIV-1 agents 5: synthesis and anti-HIV-1 activity of some N-arylsulfonyl-3-acetylindoles in vitro” (Bioorg Med Chem Lett, 2010):
≈ marks a conversion by molar mass, not a printed value.

Legend:
[1] = Cytotoxicity against human C8166 cells after 3 days by MTT assay; format: cell-based
[2] = system: Human immunodeficiency virus 1; assay: Antiviral activity against HIV1 3B infected in C8166 cells assessed as inhibition of syncytia formation; format: functional, organism-based; conditions: Human immunodeficiency virus 1, 3B
[3] = Therapeutic index, ratio of CC50 for human C8166 to EC50 for HIV1 3B

Row | Structure (SMILES) | EC50 [2] [µg/mL] | CC50 at 72 h [1] [µg/mL] | selectivity ratio ([3]; C8166 cells) | selectivity ratio [3]
1 | CC(=O)c1cn(S(=O)(=O)c2ccc(C)cc2)c2ccc([N+](=O)[O-])cc12 | > 200 | > 200 | – | –
2 | CC(=O)c1cn(S(=O)(=O)c2cccc([N+](=O)[O-])c2)c2cc(C)ccc12 | 1.02 (≈ 2.85 µM) | 125 (≈ 349 µM) | 122 | –
3 | CC(=O)c1cn(S(=O)(=O)c2ccc(Cl)cc2)c2ccc(C#N)cc12 | 54.4 (≈ 152 µM) | 65.2 (≈ 182 µM) | 1.19 | –
4 | CCc1ccc(S(=O)(=O)n2cc(C(C)=O)c3cc(C#N)ccc32)cc1 | 30.5 (≈ 86.5 µM) | 113 (≈ 320 µM) | – | 3.7
5 | CC(=O)c1cn(S(=O)(=O)c2cccc([N+](=O)[O-])c2)c2ccccc12 | 2.12 (≈ 6.16 µM) | 164 (≈ 477 µM) | 77.4 | –
6 | CC(=O)c1cn(S(=O)(=O)c2ccc(Br)cc2)c2ccc([N+](=O)[O-])cc12 | 54.5 (≈ 129 µM) | 70.4 (≈ 166 µM) | 1.29 | –
7 | Cc1cn([C@H]2C[C@H](N=[N+]=[N-])[C@@H](CO)O2)c(=O)[nH]c1=O [ZIDOVUDINE] | 0.00324 (≈ 0.0121 µM) | 1140 (≈ 4260 µM) | – | 353000
8 | CC(=O)c1cn(S(=O)(=O)c2ccc(Br)cc2)c2ccc(C#N)cc12 | > 200 | > 200 | – | –
9 | CC(=O)c1cn(S(=O)(=O)c2ccc(C)cc2)c2ccc(C#N)cc12 | 76.9 (≈ 227 µM) | 147 (≈ 435 µM) | 1.91 | –
10 | CC(=O)c1cn(S(=O)(=O)c2ccc(Cl)c([N+](=O)[O-])c2)c2ccccc12 | 3.43 (≈ 9.06 µM) | 3.21 (≈ 8.47 µM) | 0.94 | –

Further lines, with some results ahead:

Row | EC50 [2] [µg/mL] | Structure (SMILES) | CC50 at 72 h [1] [µg/mL] | selectivity ratio ([3]; C8166 cells) | selectivity ratio [3]
11 | 57.5 (≈ 177 µM) | CC(=O)c1cn(S(=O)(=O)c2ccccc2)c2ccc(C#N)cc12 | 66.2 (≈ 204 µM) | 1.21 | –
12 | 45.8 (≈ 133 µM) | CC(=O)c1cn(S(=O)(=O)c2ccccc2)c2ccc([N+](=O)[O-])cc12 | > 200 | > 4.36 | –
13 | 20.4 (≈ 60.7 µM) | O=S(=O)(c1ccc(Br)cc1)n1ccc2ccccc21 | > 200 | > 9.79 | –
14 | 0.74 (≈ 2.45 µM) | O=[N+]([O-])c1cccc(S(=O)(=O)n2ccc3ccccc32)c1 | > 200 | > 270 | –
15 | 3.23 (≈ 11.4 µM) | N#Cc1ccc2c(ccn2S(=O)(=O)c2ccccc2)c1 | > 200 | > 61.9 | –
16 | 0.93 (≈ 3.61 µM) | O=S(=O)(c1ccccc1)n1ccc2ccccc21 | 47.1 (≈ 183 µM) | 50.7 | –
